{"source": "paper PMC5618191", "about": "(Toxins, 2017)", "key": {"[1]": {"test_system": "CT-26-derived tumor allografts", "test": "CT-26 allograft mouse model", "format": "in vivo, BALB/c mice", "procedure": "For the allograft experiment, 4 × 10^5 CT-26 cells were resuspended in 50 µL RPMI medium and injected subcutaneously into the right flank of eight, 6–8 weeks old, male BALB/c mice that were obtained from Harlan Laboratories (San Pietro al Natisone, Italy). Likewise, in the xenograft experiment, 1 × 10^6 KB-3-1 cells in 50 µL RPMI medium were injected subcutaneously into the right flank of eight, 6–8 weeks old, male CB-17/IcrHanHsd-Prkdc severe combined immunodeficiency (SCID) mice. Of each group, four animals were randomly assigned to the control or to the treatment group. […] All animals were kept under pathogen-free conditions and all procedures were performed in a laminar flow hood. Effects of the treatment were assessed by daily recording of tumor size with a microcaliper and parameters indicating the animals’ overall health condition (e.g., body weight, fatigue, grooming, ragged coat, food and fluid consumption). Tumor volumes (mm^3) were calculated using the formula: (length × width^2)/2. […] The tumor mass was weighed and organs and tissues for immunohistochemical experiments were fixed in 4% formalin/PBS (Roti®-Histofix 4%, Roth, Karlsruhe, Germany) or shock-frozen in liquid nitrogen and stored at −80 °C until the samples were prepared for LC-MS/MS analysis. The experiments were approved by the ethics committee of the Austrian Federal Ministry of Science, Research, and Economy (BMWF-66.009/0084-II/3b/2013, date of approval: 5 September 2013) and performed in line with the Arrive guidelines for animal care and protection and with guidelines from the Austrian Animal Science Association and from the Federation of European Laboratory Animal Science Associations (FELASA).\nFrom each mouse from both the control (n = 4) and the treatment group (n = 4), tissue samples were formalin-fixed, paraffin-embedded and used to prepare serial 3 µm sections. Then, slices were deparaffinized and rehydrated. To evaluate the percentages of interphase/resting, mitotic and dead (apoptotic/necrotic) cell fractions in tumor specimens, sections were stained with hematoxylin and eosin (H/E) by means of standard protocols. Numbers of the three cell fractions were analyzed in a blinded setup in at least four images of H/E-stained tumor sections, taken under a 40 × objective microscope lens. In addition, for the quantification of areas of dead tumor tissue in whole tumor sections, the H/E-stained slides were scanned with a Pannoramic MIDI automated slide scanner (3[…], Budapest, Hungary) and evaluated using Definiens’ TissueStudio® 4.0 (Definiens®, Munich, Germany) software and Pannoramic Viewer (3[…]) software. To evaluate the fraction of apoptotic cells in tumor sections a terminal deoxynucleotidyl transferase (TdT) deoxyuridine triphosphate (dUTP) nick end labeling (TUNEL) assay was performed applying the In Situ Cell Death Kit TMR (red) (Roche Diagnostics, Mannheim, Germany) according to the manufacturer’s protocol. Afterwards, slides were covered with Vectashield anti-fade mounting medium with DAPI (H-1200, Vector Laboratories, Burlingame, CA, USA). Slides were protected from light until they were scanned with a Pannoramic MIDI automated slide scanner (3[…]) and analyzed via digital image analysis software (Definiens’ TissueStudio® 4.0, Definiens®). In order to visualize the proliferative cell fraction (cells in the interphase or M-phase) of tumors, KB-3-1 tumor sections were stained with the Ki-67 (clone MiB-1) antibody from DAKO (1:100; Glostrup, Denmark) and for CT-26 tumor sections with Ki-67 (1:100; D3B5, rabbit, Cell Signaling, Danvers, USA). The primary antibody was incubated for 30 min at room temperature in a humid chamber and after rinsing the slides for 3 min in PBS + 0.1% Tween, the UltraVision LP detection system was applied according to the manufacturer’s instructions (Thermo Fisher Scientific, Massachusetts, MA, USA). Sections were counterstained with hematoxylin. […]"}, "[2]": {"test_system": "CT-26 murine colon carcinoma cells", "test": "Cell viability assay (MTT, 72 h)", "format": "cell-based, mouse", "procedure": "(§1) For the cell lines KB-3-1 and SW480 2 × 10^3 cells, for NIH/3T3, CT-26, HaCaT, and GH354 cells 3 × 10^3 cells and for ME-180 and SW620 cells 4 × 10^3 cells were seeded into 96-well pates and incubated at 37 °C (5% CO2) overnight. […] For higher cell confluency, NIH/3T3, CT-26, HaCaT, KB-3-1, and SW480 cells were grown to a cell density of approximately 50–60% before treatment. […] The percentage of viable cells was detected after incubation with 3-(4,5-dimethylthiazol-2-yl)-2,5-diphenyltetrazolium bromide (MTT) at 37 °C for 1–4 h, depending on the cell line, according to the user manual (EZ4U, Biomedica, Vienna, Austria). […] All experiments were conducted using full-growth media with 10% FBS in triplicate and repeated three times. The cell confluency was analyzed by Image J 1.50i (NIH, New York, NY, USA)."}, "[3]": {"test_system": "HaCaT non-malignant keratinocytes", "test": "Cell viability assay (MTT, 72 h)", "format": "cell-based, human", "procedure": "as §1"}, "[4]": {"test_system": "SW480 colorectal adenocarcinoma cells", "test": "Cell viability assay (MTT, 72 h)", "format": "cell-based, human", "procedure": "as §1"}, "[5]": {"test_system": "GH354 cervix adenocarcinoma cells", "test": "Cell viability assay (MTT, 72 h)", "format": "cell-based, human", "conditions": "GH354, sparse (5–10% confluency)", "procedure": "as §1"}, "[6]": {"test_system": "KB-3-1 cervix carcinoma cells", "test": "Cell viability assay (MTT, 72 h)", "format": "cell-based, human", "procedure": "as §1"}, "[7]": {"test_system": "SW620 colon metastasis cells", "test": "Cell viability assay (MTT, 72 h)", "format": "cell-based, human", "procedure": "as §1"}, "[8]": {"test_system": "ME-180 cervix metastasis cells", "test": "Cell viability assay (MTT, 72 h)", "format": "cell-based, human", "conditions": "ME-180, sparse (5–10% confluency)", "procedure": "as §1"}, "[9]": {"conditions": "CT-26, sparse (5–10% confluency), 72 h"}, "[10]": {"conditions": "SW480, sparse (5–10% confluency)"}, "[11]": {"conditions": "KB-3-1, sparse (5–10% confluency)"}, "[12]": {"conditions": "SW620, sparse (5–10% confluency), 72 h"}}, "note": "Like-named read-outs stand apart in the source and are kept apart here."}
{"substance": "beauvericin", "values": [{"measurement": "Average tumor weight reduction", "setting": "[1]; 5 mg/kg bw/day i.p., day 14, vs untreated, p = 0.057", "value": 60, "unit": "%"}, {"measurement": "Reduction of mean tumor volume", "setting": "[1]; 5 mg/kg bw/day i.p., two cycles, day 14, vs solvent control", "value": 52.8, "unit": "%"}, {"measurement": "Higher rate of scattered cells with signs of cell death (apoptosis or necrosis) in viable tumor regions", "setting": "[1]; H/E, treated vs control, p < 0.05", "value": 22, "unit": "%"}, {"measurement": "Ki-67-positive (proliferating) tumor cells", "setting": "[1]; treated group, tumor sections, control 66.9 ± […]", "value": "81.6 ± 3.7", "unit": "%"}, {"measurement": "Mitotic cells in H/E-stained tumor sections", "setting": "[1]; treated group, control 0.4 ± 0.1%", "value": "0.3 ± 0.2", "unit": "%"}, {"measurement": "Increase of average apoptosis rate (TUNEL) in viable tumor areas", "setting": "[1]; treated versus untreated, p = 0.065", "value": 2.1, "unit": "fold"}, {"measurement": "Increase of necrotic areas in H/E-stained whole tumor sections", "setting": "[1]; treated vs control, p < 0.05", "value": 2.2, "unit": "fold"}, {"measurement": "Tumor cell viability", "setting": "[2]; 0.5 µM, higher density (50–60%), murine models", "value": "significantly reduced"}, {"measurement": "Mean IC25 ± SD", "setting": "[2]; [9]", "value": "1.4 ± 0.2", "unit": "µM"}, {"measurement": "Mean IC75 ± SD", "setting": "[2]; [9]", "value": "2.7 ± 0.5", "unit": "µM"}, {"measurement": "IC50", "setting": "[2]; CT-26, sparse (5–10% confluency), 72 h, read-out: Mean IC50 ± SD", "value": "1.8 ± 0.2", "unit": "µM"}, {"measurement": "IC50", "setting": "[3]; higher density (50–60% confluency), read-out: IC50 value", "value": "> 10", "unit": "µM"}, {"measurement": "Mean IC25 ± SD", "setting": "[3]; sparse (5–10% confluency)", "value": "2.7 ± 0.2", "unit": "µM"}, {"measurement": "Mean IC75 ± SD", "setting": "[3]; sparse (5–10% confluency)", "value": "4.8 ± 0.7", "unit": "µM"}, {"measurement": "IC50", "setting": "[3]; sparse (5–10% confluency), read-out: Mean IC50 ± SD", "value": "3.9 ± 0.4", "unit": "µM"}, {"measurement": "IC50", "setting": "[4]; SW480, higher density (50–60% confluency), read-out: IC50 value", "value": 3.7, "unit": "µM"}, {"measurement": "Mean IC25 ± SD", "setting": "[4]; [10]", "value": "2.1 ± 1.3", "unit": "µM"}, {"measurement": "Mean IC75 ± SD", "setting": "[4]; [10]", "value": "4.2 ± 2.7", "unit": "µM"}, {"measurement": "IC50", "setting": "[4]; SW480, sparse (5–10% confluency), read-out: Mean IC50 ± SD", "value": "3.3 ± 0.3", "unit": "µM"}, {"measurement": "Mean IC25 ± SD", "setting": "[5]", "value": "2.2 ± 0.6", "unit": "µM"}, {"measurement": "Mean IC75 ± SD", "setting": "[5]", "value": "6.3 ± 2.1", "unit": "µM"}, {"measurement": "IC50", "setting": "[5]; read-out: Mean IC50 ± SD", "value": "3.6 ± 1.2", "unit": "µM"}, {"measurement": "IC50", "setting": "[6]; KB-3-1, higher density (50–60% confluency), read-out: IC50 value", "value": 4.3, "unit": "µM"}, {"measurement": "Mean IC25 ± SD", "setting": "[6]; [11]", "value": "2.6 ± 0.9", "unit": "µM"}, {"measurement": "Mean IC75 ± SD", "setting": "[6]; [11]", "value": "3.6 ± 0.9", "unit": "µM"}, {"measurement": "IC50", "setting": "[6]; KB-3-1, sparse (5–10% confluency), read-out: Mean IC50 ± SD", "value": "3.1 ± 0.7", "unit": "µM"}, {"measurement": "Mean IC25 ± SD", "setting": "[7]; [12]", "value": "0.3 ± 0.02", "unit": "µM"}, {"measurement": "Mean IC75 ± SD", "setting": "[7]; [12]", "value": "1.9 ± 0.2", "unit": "µM"}, {"measurement": "IC50", "setting": "[7]; SW620, sparse (5–10% confluency), 72 h, read-out: Mean IC50 ± SD", "value": "0.7 ± 0.1", "unit": "µM"}, {"measurement": "IC50 of SW620 lower as compared to SW480", "setting": "[7]; sparse conditions", "value": 4.7, "unit": "fold"}, {"measurement": "IC50 of SW620 lower than normal HaCaT cells", "setting": "[7]; sparse conditions", "value": 5.6, "unit": "fold"}, {"measurement": "Mean IC25 ± SD", "setting": "[8]", "value": "1.6 ± 0.8", "unit": "µM"}, {"measurement": "Mean IC75 ± SD", "setting": "[8]", "value": "4.5 ± 1.2", "unit": "µM"}, {"measurement": "IC50", "setting": "[8]; read-out: Mean IC50 ± SD", "value": "2.2 ± 0.7", "unit": "µM"}]}
